Test results: patent publication US20230339835A1, “2,3,5-TRIMETHYL-6-NONYLCYCLOHEXA-2,5-DIENE-1,4-DIONE FOR SUPPRESSING AND TREATING ALPHA-SYNUCLEINOPATHIES, TAUOPATHIES, AND OTHER DISORDERS” (PTC THERAPEUTICS, INC., priority 2018, published 2023)
In brackets after ≈: the same amount, converted by molar mass. Marks after values point to notes of the source that are not given here.

Key:
[1] = tested on: N27 rat dopaminergic cells overexpressing a truncated human αSynuclein-GFP fusion protein; test: Inhibition of RSL3-induced αSynuclein aggregation in N27 cells; format: cell-based; settings: 60 nM RSL3, 70 nM compound, 24 hr, vs RSL3 only (Dunnett's test)
Procedure: N27 rat dopaminergic cells (purchased from EMD Millipore, SCC048) were transformed to stably overexpress truncated α-Synuclein fused with green fluorescent protein (GFP) with a plasmid construct obtained from Origene (RG221446). Cells were maintained in selection media which consisted of RPMI 1640 media supplemented with 10% (v/v) fetal bovine serum (Millipore, ES-009-B), 1% (v/v) Pencillin-Streptomycin (Gibco, 15140-122), 1% (v/v) L-Glutamine (Gibco, 25030-081) and 500 μg/mL of G418 (Gibco, 10131-027).
N27 rat dopaminergic cells overexpressing a truncated (112 amino acid) human αSynuclein-GFP fusion protein, as described above, were maintained in normal culture conditions as described above. The day before the experiment, cells were plated in 96 well optical bottom, black walled plates at 3,000 cells/well, and maintained at 37° C. for 24 hr. The experiment was initiated by co-treating cells with (1S,3R)-methyl 2-(2-chloroacetyl)-1-(4-(methoxycarbonyl)phenyl)-2,3,4,9-tetrahydro-1H-pyrido[3,4-b]indole-3-carboxylate (1S,3R-RSL3, described by Yang et al., Cell 156:317-331 (2014)) (60 nM) and 70 nM compounds (2,3,5-trimethyl-6-nonylcyclohexa-2,5-diene-1,4-dione (C9), 2,3,5-trimethyl-6-octylcyclohexa-2,5-diene-1,4-dione (C8), or 2,3,5-trimethyl-6-heptylcyclohexa-2,5-diene-1,4-dione (C7)) using a D300e compound printer (Tecan), and placed back in the incubator at 37° C. for 24 hr. Cells were fixed with 4% paraformaldehyde for 15 minutes at room temperature, washed 3 times with Dulbecco's phosphate-buffered saline (DPBS) buffer, and then incubated at room temperature for 48 hr with 1% Triton-X 100 solution (in DPBS) to enable selective labeling of aggregated αSynuclein. Cells were then washed and standard immunocytochemistry (ICC) methods were employed to label total αSynuclein (mouse anti-αSynuclein, 1:250, BD Biosciences). Cells were incubated with primary antibody overnight at 4° C. and then washed with DPBS 3 times the following day. Cells were then incubated at room temperature with a fluorescently conjugated secondary antibody (goat anti-mouse Alexa 647, Invitrogen) for 2 hr at room temperature. 10 nM Hoechst was also added to label nuclei, and cells were imaged on a high-content imaging platform (ThermoFisher, HSC Cellomics Arrayscan) to quantify total aggregated αSynuclein (see FIG. 3A).
Statistical analysis of samples was performed via ordinary one-way ANOVA analysis with Dunnett's multiple comparisons test, comparing RSL3 only-treated vs. RSL3 plus compound-treated cells.

[2] = biological target: T1, pre-formed fibrils (PFFs) of human wild-type Tau K18 fragment (Homo sapiens, UniProt P10636); test: Cell-free Tau K18 WT pre-formed fibril disaggregation assay (Thioflavin T); format: biochemical; settings: 10 μM Tau PFFs, 30 μM compound, 94 hr, vs vehicle (Dunnett's test)
T1 construct: human recombinant Tau K18 WT fragment were generated by incubating the Tau K18 monomer (Bio-Techne®); purchased Bio-Techne
T1 sequence (P10636 561-685 limits assumed): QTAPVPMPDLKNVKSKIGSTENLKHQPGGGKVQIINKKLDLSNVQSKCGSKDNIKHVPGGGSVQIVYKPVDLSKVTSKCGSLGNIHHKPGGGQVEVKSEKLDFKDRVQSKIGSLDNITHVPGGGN
Procedure: Summary: Compounds 2,3,5-trimethyl-6-nonylcyclohexa-2,5-diene-1,4-dione (C9), 2,3,5-trimethyl-6-octylcyclohexa-2,5-diene-1,4-dione (C8), and 2,3,5-trimethyl-6-heptylcyclohexa-2,5-diene-1,4-dione (C7) were tested for their ability to disaggregate pre-formed fibrils (PFFs) of human wild-type Tau K18 fragment, as measured by the decrease in fluorescence intensity of the aggregate-binding fluorophore, Thioflavin T, over time.
Experimental Methods: Pre-formed fibrils (PFFs) of the human recombinant Tau K18 WT fragment were generated by incubating the Tau K18 monomer (Bio-Techne®) with sodium heparin in a 1:1 ratio in presence of excess (50×) tris(2-carboxyethyl)phosphine (TCEP) as the reducing agent in Dulbecco's phosphate-buffered saline (DPBS) buffer (pH 7.4). The mixture was incubated for 4 days at 37° C. without agitation to yield PFFs in 100 μM final concentration.
Cell-free Tau disaggregation assays were set up with 10 μM of Tau PFFs in the presence of 30 μM of compound (from 10 mM stocks in DMSO) or in 0.3% (v/v) DMSO as vehicle. All solutions were prepared in DPBS buffer (pH 7.4) with 0.03% (v/v) NaN3 and 5 μM Thioflavin T (ThT), prepared as a master mix before addition of the protein or compounds. A protein master mix was first prepared the day before the assay to pre-equilibrate the Tau PFFs at 10 μM at ambient temperature and atmosphere. The next day, the pre-mixed protein solution was separated into 4 tubes (1 per condition). […]
Tau PFFs solution+/−compound and background samples were then loaded into wells of an optically transparent 96-well plate with black walls, which was sealed with a LightCycler® 480 seal (Roche Life Science), incubated at 37° C. for 15 minutes to equilibrate and the data collection was initiated. A Tecan M1000 spectrometer was used to collect data points on ThT fluorescence (ex/em 450/490 nm) every 30 minutes without agitation.
Data Analysis and Results: The maximum fluorescence intensity unit (FIU) value of the vehicle-treated Tau samples was set to 100%, to which all other FIU values were normalized relatively. […]

[3] = biological target: T2, recombinant human αSynuclein (Homo sapiens, UniProt P37840); test: Cell-free αSynuclein aggregation assay (Thioflavin T); format: biochemical; settings: 200 μM αSynuclein, 100 μM compound, t=24 hours, one-way ANOVA with Tukey's test
T2 construct: purchased Proteos, Inc
Procedure: Summary: The compound 2,3,5-trimethyl-6-nonylcyclohexa-2,5-diene-1,4-dione (“C9”), and its C8 (2,3,5-trimethyl-6-octylcyclohexa-2,5-diene-1,4-dione) and C7 (2,3,5-trimethyl-6-heptylcyclohexa-2,5-diene-1,4-dione) analogs were tested for their function as inhibitors of αSynuclein aggregation, as measured by the presence and extent of a lag phase in the kinetics of protein aggregation. Changes in the fluorescence intensity by the aggregate-binding fluorophore, Thioflavin T, were followed to report on the protein aggregation as a function of time.
Experimental Methods: Cell-free αSynuclein aggregation assays were set up with 200 μM of recombinant human αSynuclein (Proteos, Inc.) in the presence of 100 μM of compound (from 10 mM stock solutions in DMSO) or in 1% (v/v) DMSO as vehicle. All solutions were prepared in Dulbecco's phosphate-buffered saline (DPBS) buffer (pH 7.4) with 0.03% (v/v) NaN3 and 5 μM Thioflavin T (ThT), prepared as a master mix before addition of the protein or compounds. A protein master mix was then prepared and separated into 4 tubes (1 per condition). […]
Protein solution+/−compound and background samples were then loaded into wells of an optically transparent 96-well plate with black walls (Corning Costar), which was sealed with a LightCycler® 480 seal (Roche Life Science), incubated at 37° C. for 15 minutes to equilibrate, after which the data collection was started. A Tecan M1000 spectrometer was used to collect data points on ThT fluorescence (ex/em 450/490 nm) every 30 minutes. The plate was agitated by shaking in between fluorescence reads.
Data Analysis and Results: Fluorescence intensity data were collected on all the samples over time. The endpoint fluorescence intensity unit (FIU) value of the mean of vehicle-treated αSyn samples was set to 100%, and all other FIU values were normalized relative to it (see FIG. 1A). The end results were plotted as normalized ThT fluorescence (%) with respect to time.
Normalized ThT fluorescence values (% FIU) at t=24 hours were used to compare samples (see FIG. 1B). […]

[4] = Humidification cycling by dynamic vapor sorption (DVS); format: physicochemical
Procedure: As-received material (ID 1-1) was subjected to humidification cycling by dynamic vapor sorption (DVS) instrument. The material underwent a 0.01% change in mass in the 15-75% relative humidity range, and a 0.08% change in mass over the full range of 2-95% relative humidity. Following humidification cycling, the solid was analyzed by XRPD.

[5] = Solubility in simulated fluids and water; format: physicochemical; settings: for solubility at 24 h: thermodynamic from solid
Procedure: Solubility of Pattern A and melted solid was assessed in Fasted-State Simulated Gastric Fluid (FaSSGF), Fed-State Simulated Intestinal Fluid (FeSSIF), and Fasted-State Simulated Intestinal Fluid (FaSSIF), water, and 0.5% methyl cellulose+2% Tween80 in water. Five foil-covered 4 mL vials were prepared with 11-13 mg of as-received material (ID-1-1), 10 mm stir bars were included. Five foil-covered 4 mL vials containing between 11-13 mg of C9 were melted on a hot plate at 70° C. for 10 min and cooled to room temperature for 5 min, 10 mm stir bars were included.
Slurries were prepared with the as-received material ID-1-1 (Pattern A) and melted C9, each in 2.5 mL of simulated fluids (including 0.5% methyl cellulose+2% Tween80 in water), or water. The samples containing melted active pharmaceutical ingredient (API) were sonicated briefly, as they appeared to contain clumps of material. […] For solubility analysis 1 mL of each sample was pipetted into a syringe filter, the first 0.5 mL was filtered back into the source vial and the remaining 0.5 mL was filtered into HPLC vials with low volume inserts.
The response factor calculated with the calibration points was used to determine the concentrations of API in the simulated fluids and water. Calibration samples were prepared with as-received material (ID-1-1) in ACN. The concentrations and peak areas for each calibration point were plotted and a response factor calculated for solubility assessment.
Due to high pressures observed with the UPLC column, a different column and a modified method was employed for 24 h data points with 0.5% methyl cellulose+2% Tween80 in water, and 24 h in water (ID-30-4, ID-30-9 and ID-30-10). HPLC samples of ID-30-4 and 30-9 (those containing the methyl cellulose/Tween80 mixture) were diluted 10× with ACN. These samples plus a new set of injections of the calibration points were analyzed, a new response factor was determined, and the solubility of the remaining samples was calculated (response factor: 8084.7908; R2: 0.9989).

Compound	inhibition of RSL3-induced αSynuclein aggregation [1]	reduction in Tau fibril content [2]	inhibition of αSynuclein aggregation (normalized ThT fluorescence vs vehicle) [3]	DVS Change Mass (wt. %) ([4]; 2-95% RH)	DVS Change Mass (wt. %) ([4]; 15-75% RH)	Solubility at 24 hours (mg/mL) ([5]; 0.5% MC + 2% Tween80 (aq), Phenomenex Luna Phenyl Hexyl HPLC column and modified method, listed as A (melted))	Conc. (mg/mL) at 30 min ([5]; 0.5% MC + 2% Tween80 (aq.), listed as A (melted)) [mg/mL]	solubility at 24 h ([5]; 0.5% methyl cellulose + 2% Tween80 in water, aqueous with cosolvent or surfactant or cyclodextrin, 0.5% MC + 2% Tween80 (aq), Phenomenex Luna Phenyl Hexyl HPLC column and modified method) [µg/mL]	Conc. (mg/mL) at 30 min ([5]; FaSSGF)	Solubility at 24 hours (mg/mL) ([5]; FaSSGF)	Conc. (mg/mL) at 30 min ([5]; FaSSIF, listed as A (melted)) [mg/mL]	solubility at 24 h ([5]; Fasted-State Simulated Intestinal Fluid (FaSSIF), fassif) [µg/mL]	Conc. (mg/mL) at 30 min ([5]; FeSSIF, listed as A (melted)) [mg/mL]	solubility at 24 h ([5]; Fed-State Simulated Intestinal Fluid (FeSSIF), fessif) [µg/mL]	Conc. (mg/mL) at 30 min ([5]; water)	Solubility at 24 hours (mg/mL) ([5]; water)	Solubility at 24 hours (mg/mL) ([5]; water, listed as A (melted))
CCCCCCCC1=C(C)C(=O)C(C)=C(C)C1=O [Compound C7, 2,3,5-trimethyl-6-heptylcyclohexa-2,5-diene-1,4-dione]	did not demonstrate any inhibition	did not have a significant reduction	not statistically significant														
CCCCCCCCCC1=C(C)C(=O)C(C)=C(C)C1=O [Melted Pattern A, 2,3,5-trimethyl-6-nonylcyclohexa-2,5-diene-1,4-dione]				0.073	0.044	0.28# mg/mL	0.22	280	BDL	BDL	0.02	40 (≈ 145 µM)	0.25	200 (≈ 724 µM)	BDL	BDL	BDL#
